Source: BigSolDB 2.1

NC(N)=C([N+](=O)[O-])[N+](=O)[O-]
solubility (mole fraction)
Conditions	293.15 K	298.15 K	303.15 K	308.15 K	313.15 K	318.15 K	323.15 K	328.15 K	333.15 K
in 2-butanone	0.00503	0.0056	0.00613	0.00659	0.00714	0.00782	0.00837	0.00899	0.00957
in DMSO	0.172	0.177	0.181	0.184	0.189	0.193	0.197	0.201	0.206
in MIBK	0.00278	0.00327	0.00358	0.00402	0.00428	0.00467	0.00512	0.00553	0.006
in cyclopentanone	0.00715	0.00767	0.0083	0.0089	0.00948	0.0103	0.011	0.0119	0.0128
